Measured values from ChEMBL document CHEMBL4804281, “STK4 inhibitors for treatment of hematologic malignancies” (2020).

Tests used:
Assay type in all cases: cell-based
[1] = target: T1, Tyrosine-protein kinase Mer (Homo sapiens) (UniProt Q12866); assay: Inhibition of MER in human NCI-H929 cells at 10 uM by mass spectroscopic analysis relative to control
T1 sequence (whole entry): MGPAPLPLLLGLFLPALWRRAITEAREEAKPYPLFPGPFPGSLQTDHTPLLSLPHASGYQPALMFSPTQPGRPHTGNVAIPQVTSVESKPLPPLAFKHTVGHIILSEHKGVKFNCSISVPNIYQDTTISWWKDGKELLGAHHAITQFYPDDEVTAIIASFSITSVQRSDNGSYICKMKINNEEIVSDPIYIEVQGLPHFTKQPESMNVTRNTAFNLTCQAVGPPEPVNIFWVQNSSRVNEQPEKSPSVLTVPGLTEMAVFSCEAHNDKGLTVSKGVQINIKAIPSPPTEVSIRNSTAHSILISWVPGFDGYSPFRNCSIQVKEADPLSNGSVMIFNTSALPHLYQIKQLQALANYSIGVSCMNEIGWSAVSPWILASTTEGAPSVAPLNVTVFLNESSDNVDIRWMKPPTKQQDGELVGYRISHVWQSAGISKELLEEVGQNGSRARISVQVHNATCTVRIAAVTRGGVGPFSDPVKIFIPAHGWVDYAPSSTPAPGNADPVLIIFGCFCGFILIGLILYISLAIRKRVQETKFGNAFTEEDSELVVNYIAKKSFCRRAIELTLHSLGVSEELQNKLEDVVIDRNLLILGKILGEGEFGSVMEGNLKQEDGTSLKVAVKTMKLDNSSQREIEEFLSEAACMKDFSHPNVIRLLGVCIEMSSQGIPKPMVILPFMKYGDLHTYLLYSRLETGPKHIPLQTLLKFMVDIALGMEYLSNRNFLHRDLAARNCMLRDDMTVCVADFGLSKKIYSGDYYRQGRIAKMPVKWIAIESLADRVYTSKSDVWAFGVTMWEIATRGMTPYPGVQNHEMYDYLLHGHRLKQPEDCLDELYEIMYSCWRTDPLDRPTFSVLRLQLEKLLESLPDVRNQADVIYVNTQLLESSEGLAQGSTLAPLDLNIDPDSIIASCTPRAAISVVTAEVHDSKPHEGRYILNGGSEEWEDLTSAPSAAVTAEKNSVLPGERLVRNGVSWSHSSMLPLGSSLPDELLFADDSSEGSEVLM

[2] = target: T2, Inhibitor of nuclear factor kappa-B kinase subunit epsilon (Homo sapiens) (UniProt Q14164); assay: Inhibition of IKKE in human NCI-H929 cells at 10 uM by mass spectroscopic analysis relative to control
T2 sequence (whole entry): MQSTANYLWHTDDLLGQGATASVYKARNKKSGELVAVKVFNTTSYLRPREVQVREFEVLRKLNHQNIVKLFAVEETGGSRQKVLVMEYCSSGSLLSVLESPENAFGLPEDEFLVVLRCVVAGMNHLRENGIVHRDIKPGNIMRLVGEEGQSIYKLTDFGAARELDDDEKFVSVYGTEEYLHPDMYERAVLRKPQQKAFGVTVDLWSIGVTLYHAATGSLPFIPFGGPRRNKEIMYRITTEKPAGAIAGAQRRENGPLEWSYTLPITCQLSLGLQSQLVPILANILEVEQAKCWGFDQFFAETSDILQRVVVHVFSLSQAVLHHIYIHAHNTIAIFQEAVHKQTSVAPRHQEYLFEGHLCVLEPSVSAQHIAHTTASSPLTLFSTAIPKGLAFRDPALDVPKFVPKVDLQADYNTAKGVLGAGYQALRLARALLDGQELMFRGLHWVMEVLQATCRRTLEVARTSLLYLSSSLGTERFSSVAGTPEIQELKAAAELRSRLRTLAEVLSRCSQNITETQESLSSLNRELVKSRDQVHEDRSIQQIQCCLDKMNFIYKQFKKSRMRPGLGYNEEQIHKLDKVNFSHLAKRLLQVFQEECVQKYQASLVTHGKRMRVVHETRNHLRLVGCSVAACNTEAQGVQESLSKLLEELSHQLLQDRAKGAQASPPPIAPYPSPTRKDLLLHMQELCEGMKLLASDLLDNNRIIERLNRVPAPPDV

[3] = target: Ribosomal protein S6 kinase alpha-2 (Homo sapiens) (UniProt Q15349); assay: Inhibition of RSK3 domain 1 in human NCI-H929 cells at 10 uM by mass spectroscopic analysis relative to control
[4] = target: T3, Serine/threonine-protein kinase TAO3 (Homo sapiens) (UniProt Q9H2K8); assay: Inhibition of TAO3 in human NCI-H929 cells at 10 uM by mass spectroscopic analysis relative to control
T3 sequence (whole entry): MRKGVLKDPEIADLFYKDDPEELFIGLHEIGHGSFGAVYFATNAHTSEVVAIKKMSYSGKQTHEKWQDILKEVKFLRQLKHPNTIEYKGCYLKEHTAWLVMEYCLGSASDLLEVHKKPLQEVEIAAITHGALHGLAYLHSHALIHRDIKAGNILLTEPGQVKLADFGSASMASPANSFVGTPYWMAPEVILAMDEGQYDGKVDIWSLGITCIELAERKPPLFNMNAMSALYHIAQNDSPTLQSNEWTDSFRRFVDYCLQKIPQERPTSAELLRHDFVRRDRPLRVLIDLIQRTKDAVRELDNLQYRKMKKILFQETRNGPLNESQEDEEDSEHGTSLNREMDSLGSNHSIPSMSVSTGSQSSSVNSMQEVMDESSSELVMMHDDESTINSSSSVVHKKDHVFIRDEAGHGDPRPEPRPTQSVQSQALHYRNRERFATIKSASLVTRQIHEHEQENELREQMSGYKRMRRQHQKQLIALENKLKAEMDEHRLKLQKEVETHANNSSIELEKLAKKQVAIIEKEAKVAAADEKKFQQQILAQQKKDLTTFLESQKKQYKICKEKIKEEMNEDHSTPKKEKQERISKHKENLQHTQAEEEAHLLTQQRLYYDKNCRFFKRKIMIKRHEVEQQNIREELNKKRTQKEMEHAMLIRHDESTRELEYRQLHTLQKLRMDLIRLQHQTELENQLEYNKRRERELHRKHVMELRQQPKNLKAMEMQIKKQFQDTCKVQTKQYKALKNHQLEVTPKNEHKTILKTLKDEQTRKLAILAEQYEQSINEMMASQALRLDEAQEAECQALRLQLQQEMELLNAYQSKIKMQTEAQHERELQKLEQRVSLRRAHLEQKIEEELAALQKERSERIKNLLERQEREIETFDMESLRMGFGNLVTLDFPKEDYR

Chain of Ribosomal protein S6 kinase alpha-2 (Homo sapiens) (Q15349 whole entry, the tested form may be a part): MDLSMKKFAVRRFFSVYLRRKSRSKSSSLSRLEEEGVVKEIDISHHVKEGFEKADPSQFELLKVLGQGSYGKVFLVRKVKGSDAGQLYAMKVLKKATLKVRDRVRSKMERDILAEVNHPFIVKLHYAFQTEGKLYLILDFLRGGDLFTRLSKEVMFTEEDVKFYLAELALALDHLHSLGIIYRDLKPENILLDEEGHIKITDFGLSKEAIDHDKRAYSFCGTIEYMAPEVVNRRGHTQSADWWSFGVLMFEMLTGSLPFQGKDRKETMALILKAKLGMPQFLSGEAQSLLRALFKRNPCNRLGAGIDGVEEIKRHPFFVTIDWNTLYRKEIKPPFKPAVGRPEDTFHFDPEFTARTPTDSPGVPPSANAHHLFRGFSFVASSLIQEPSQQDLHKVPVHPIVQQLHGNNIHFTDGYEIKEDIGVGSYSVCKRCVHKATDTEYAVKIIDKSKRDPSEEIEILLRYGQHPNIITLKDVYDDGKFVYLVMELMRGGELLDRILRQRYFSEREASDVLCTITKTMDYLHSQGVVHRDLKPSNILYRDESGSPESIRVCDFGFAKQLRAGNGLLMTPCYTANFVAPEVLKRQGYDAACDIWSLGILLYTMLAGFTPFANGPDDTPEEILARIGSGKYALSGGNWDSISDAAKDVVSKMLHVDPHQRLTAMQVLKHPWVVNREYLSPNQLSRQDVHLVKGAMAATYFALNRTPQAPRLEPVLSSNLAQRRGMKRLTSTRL

| inhibition [1] [%] | inhibition [2] [%] | inhibition [3] [%] | inhibition [4] [%] | Structure (SMILES) |
| --- | --- | --- | --- | --- |
| – | 0 | – | – | Nc1ncc(-c2cccc([N+](=O)[O-])c2F)cc1-c1ccc2c(c1)CCNC2=O |
| – | 0 | 0 | 0 | Nc1ncc(-c2cccc3ncsc23)cc1-c1ccc2c(c1)CCNC2=O |

Second part, the compound before the results:

| Structure (SMILES) | inhibition [1] [%] | inhibition [2] [%] | inhibition [3] [%] | inhibition [4] [%] |
| --- | --- | --- | --- | --- |
| Nc1ncc(-c2ccc(NS(=O)(=O)C3CC3)cc2F)cc1-c1ccc2c(c1)CCNC2=O | 0 | 0 | 0 | – |
| COc1cc(NS(=O)(=O)C2CC2)ccc1-c1cnc(N)c(-c2ccc3c(c2)CCNC3=O)c1 | 0 | 0 | 0 | 0 |
| Nc1ncc(-c2ccc(NS(=O)(=O)C3CC3)cc2OC2CCCCC2)cc1-c1ccc2c(c1)CCNC2=O | 0 | – | 50 | 0 |
| CN(C1CC1)S(=O)(=O)c1ccc(-c2cnc(N)c(-c3ccc4c(c3)CCNC4=O)c2)c(F)c1 | – | 0 | 0 | – |
